Data from US20250188088A1, “COMPOUND AND USE THEREOF” (ONQUALITY PHARMACEUTICALS CHINA LTD., priority 2022, published 2025).
≈ marks a conversion by molar mass, not a printed value. Where two headings read alike, the source gives them in different places.

Assays:
[1] = Thermodynamic solubility assay (PBS pH 6.5; isopropyl myristate); type: physicochemical; conditions: thermodynamic from solid
Experimental: Thermodynamic Solubility Assay
Weigh not less than 2 mg of the sample powder into a Whatman Mini-UniPrep vial. If it is required to test the thermodynamic solubility of samples in multiple buffers, a separate vial is needed for each test; add 450 μL of buffer to each Whatman Mini-UniPrep vial, respectively; after that, install the piston cap of Whatman Mini-UniPrep and press it above the liquid level, so that the filter is in contact with the buffer during shaking; shake the solubility sample by vortexing for 1 minute.
Inject 3 UV standard solutions from low to high concentrations into the HPLC, then inject the diluent and supernatant of the test compound, with two replicates of test sample; and integrate the UV peaks. Simulate a standard curve and calculate the thermodynamic solubility of the sample.

[2] = Log D measurement (n-octanol/PBS shake, LC-MS/MS); type: physicochemical; conditions: pH 7.4, read-out: LogD7.4 (Oct/buff)
Experimental: Two replicates of test compounds (DMSO stock solution 10 mM, 2 μL/well) and QCs (DMSO 10 mM, 2 μL/well) were transferred from the storage tube to a 96-well cluster tube. Add buffer-saturated n-octanol ([…]) and n-octanol-saturated PBS (149 μL/well) to each well; vortex mix the cluster tube for 1 minute, mix by shaking on a plate shaker at 880 rpm for one hour, and then centrifuge at 4000 rpm for 10 minutes. Remove the cover pad, accurately measure a certain amount of n-octanol layer samples (4 μL/well) into a 96-well plate containing n-octanol internal standard diluent (796 μL/well); accurately measure a certain amount of buffer salt layer samples (30 μL/well) into a 96-well plate containing buffer internal standard diluent (570 μL/well); the dilution factor of the sample can be adjusted according to different properties of the sample. Samples were analyzed using a triple quadrupole mass spectrometer. The processed sample solution was analyzed by the fast isocratic elution and small column retention method, the concentration correction was carried out by dilution factor and internal standard, and the ratio of the corrected peak area was used to calculate the final result (Log D/Log P value).

[3] = tested on: rash caused by small molecule EGFR inhibitors; experiment: Prevention of rash caused by small molecule EGFR inhibitors, topical ointment, rat model; type: in vivo, SD rats
Description: An Experiment to Verify the Prevention of Rash Caused by Small Molecule EGFR Inhibitors with Topical Administration of Compounds of the Present Application on a Rat Animal Model A rat animal model was established. After daily gavage of a small molecule EGFR inhibitor to female SD rats for […], the rats developed extensive rashes on their backs several days later (picture shown in FIG. 1). […] Similar to humans, rats developed skin rashes on their faces and bodies after oral administration of small molecule EGFR inhibitors. Both of them had the same etiology and very similar symptoms. Therefore, rats are a proper animal model for mimicking EGFR inhibitor-induced rash. After the SD rats were fed and adapted for one week (about 200 g), the rats were divided into 10 rats per group. The hair on the back of rats was gently removed with an electric razor one day before the experiment, and then an intragastric administration test was carried out. EGFR inhibitors were dissolved in a sterile aqueous solution, and diluted with PBS buffer; the amount of each gavage was not more than 2 mL, and the dosage was shown in Table 1. The experiment comprised the administration group and the control group. After intragastric administration, apply the ointment (type and concentration are shown in Table 1) of the compound used in the present application to the backs (about 3 cm*3 cm) of rats in the administration group; apply blank matrix ointment (about 0.5 g) to the backs (about 3 cm*3 cm) of rats in the control group; fix the rats with a fixed cylinder for about 4 hours after drug application, release the rats after 4 hours, wipe off the residual drug at the application site with clean water, and put them back into the cage. The frequency of intragastric administration of EGFR inhibitors is shown in Table 1, but the compounds of the present application and blank matrix ointment are applied only once a day. The intragastric administration and application test were repeated daily until an obvious rash appeared in the control group. […] Table 1 lists the animal experiment combination of various small molecule EGFR inhibitors and the compound ointment of the present application, as well as the corresponding experiment results (wherein, the value in the control rate column=the number of rats whose rash is milder in the administration group than that in the control group/the total number of rats in the administration group×100%).

[4] = tested on: rash caused by monoclonal EGFR inhibitors; experiment: Prevention of rash caused by monoclonal EGFR inhibitors, topical ointment, rat model; type: in vivo, SD rats
In short: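 SD rats (~200 g), backs shaved, 10 per group, given EGFR monoclonal antibody i.v. (tail vein) twice weekly, with compound ointment or blank matrix ointment applied daily to a ~3×3 cm dorsal area, held 4 h then wiped off, until control rash appeared. Control rate = % of treated rats with milder rash than controls.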

[5] = aqueous buffer, PBS buffer pH 6.5, about 25° C., read-out: Thermodynamic Solubility pH = 6.5
[6] = oil or lipid, isopropyl myristate as vehicle, about 25° C., read-out: Thermodynamic Solubility in Isopropyl Myristate

SMILES: C[C@@H]1CCN(C(=O)CC#N)C[C@@H]1N(C)c1ncnc2c1ccn2C(=O)N(C)CCOC(=O)C1CC(F)(F)C1 [Compound A1]
- solubility thermodynamic at 24 h [1, 5]: 645 µg/mL (≈ 1210 µM)
- solubility thermodynamic at 24 h [1, 6]: 878 µg/mL (≈ 1650 µM)
- logD [2]: 1.45

SMILES: C[C@@H]1CCN(C(=O)CC#N)C[C@@H]1N(C)c1ncnc2c1ccn2C(=O)N(C)CCOC(=O)C1CCC(F)(F)CC1 [Compound A2]
- solubility thermodynamic at 24 h [1, 5]: 240 µg/mL (≈ 429 µM)
- solubility thermodynamic at 24 h [1, 6]: 1020 µg/mL (≈ 1820 µM)
- logD [2]: 1.86

SMILES: C[C@@H]1CCN(C(=O)CC#N)C[C@@H]1N(C)c1ncnc2c1ccn2C(=O)N(C)CCOC(=O)C1(C)CCC1 [Compound A3]
- solubility thermodynamic at 24 h [1, 5]: 304 µg/mL (≈ 597 µM)
- solubility thermodynamic at 24 h [1, 6]: 2340 µg/mL (≈ 4580 µM)
- logD [2]: 2.1

SMILES: C[C@@H]1CCN(C(=O)CC#N)C[C@@H]1N(C)c1ncnc2c1ccn2C(=O)N(C)CCOC(=O)C1CCC1 [Compound A4]
- solubility thermodynamic at 24 h [1, 5]: 486 µg/mL (≈ 981 µM)
- solubility thermodynamic at 24 h [1, 6]: 1250 µg/mL (≈ 2520 µM)
- logD [2]: 2.35

SMILES: C[C@@H]1CCN(C(=O)CC#N)C[C@@H]1N(C)c1ncnc2c1ccn2C(=O)N(C)CCOC(=O)CC1CCC1 [Compound A5]
- solubility thermodynamic at 24 h [1, 5]: 147 µg/mL (≈ 289 µM)
- solubility thermodynamic at 24 h [1, 6]: 1200 µg/mL (≈ 2350 µM)
- logD [2]: 2.05

SMILES: C[C@@H]1CCN(C(=O)CC#N)C[C@@H]1N(C)c1ncnc2c1ccn2C(=O)N(C)CCOC(=O)C1CCCC1 [Compound A6]
- solubility thermodynamic at 24 h [1, 5]: 300 µg/mL (≈ 589 µM)
- solubility thermodynamic at 24 h [1, 6]: 1530 µg/mL (≈ 2990 µM)
- logD [2]: 1.95

SMILES: C[C@@H]1CCN(C(=O)CC#N)C[C@@H]1N(C)c1ncnc2c1ccn2C(=O)N(C)CCOC(=O)C1CCOC1 (stereo partly drawn) [Compound A8]
- solubility thermodynamic at 24 h [1, 5]: 2940 µg/mL (≈ 5750 µM)
- solubility thermodynamic at 24 h [1, 6]: 208 µg/mL (≈ 407 µM)
- logD [2]: 0.56

SMILES: CCCCCC(=O)OCCN(C)C(=O)n1ccc2c(N(C)[C@H]3CN(C(=O)CC#N)CC[C@H]3C)ncnc21 [Compound A9]
- solubility thermodynamic at 24 h [1, 5]: 234 µg/mL (≈ 457 µM)
- solubility thermodynamic at 24 h [1, 6]: 1380 µg/mL (≈ 2690 µM)
- logD [2]: 1.69

SMILES: CCC(CC)C(=O)OCCN(C)C(=O)n1ccc2c(N(C)[C@H]3CN(C(=O)CC#N)CC[C@H]3C)ncnc21 [Compound A10]
- solubility thermodynamic at 24 h [1, 5]: 233 µg/mL (≈ 456 µM)
- solubility thermodynamic at 24 h [1, 6]: 1830 µg/mL (≈ 3580 µM)
- logD [2]: 2.07

SMILES: CCC(C)C(=O)OCCN(C)C(=O)n1ccc2c(N(C)[C@H]3CN(C(=O)CC#N)CC[C@H]3C)ncnc21 (stereo partly drawn) [Compound A11]
- solubility thermodynamic at 24 h [1, 5]: 170 µg/mL (≈ 341 µM)
- solubility thermodynamic at 24 h [1, 6]: 1590 µg/mL (≈ 3200 µM)
- logD [2]: 1.87

SMILES: CCCC(CC)C(=O)OCCN(C)C(=O)n1ccc2c(N(C)[C@H]3CN(C(=O)CC#N)CC[C@H]3C)ncnc21 (stereo partly drawn) [Compound A12]
- Control Rate ([3]; Afatinib 40 mg/kg once a day, ointment 1.0 wt% once a day, 14 days): 60%
- Control Rate ([3]; Afatinib 40 mg/kg once a day, ointment 3.0 wt% once a day, 14 days): 75%
- Control Rate ([3]; Afatinib 40 mg/kg once a day, ointment 5.0 wt% once a day, 14 days): 90%
- Control Rate ([3]; EAI045 80 mg/kg once a day, ointment 1.0 wt% once a day, 11 days): 60%
- Control Rate ([3]; EAI045 80 mg/kg once a day, ointment 10.0 wt% once a day, 11 days): 70%
- Control Rate ([3]; Erlotinib 70 mg/kg once a day, ointment 0.3 wt% once a day, 14 days): 20%
- Control Rate ([3]; Erlotinib 70 mg/kg once a day, ointment 3.0 wt% once a day, 14 days): 50%
- Control Rate ([3]; Osimertinib 60 mg/kg twice a day, ointment 0.3 wt% once a day, 10 days): 50%
- Control Rate ([3]; Osimertinib 60 mg/kg twice a day, ointment 5.0 wt% once a day, 10 days): 80%
- solubility thermodynamic at 24 h [1, 5]: 16 µg/mL (≈ 30.4 µM)
- solubility thermodynamic at 24 h [1, 6]: 339 µg/mL (≈ 646 µM)
- logD [2]: 2.72
- Control Rate ([4]; Cetuximab 100 mg/kg twice a week via tail vein, ointment 0.3 wt% once a day, 10 days): 20%
- Control Rate ([4]; Cetuximab 100 mg/kg twice a week via tail vein, ointment 3.0 wt% once a day, 10 days): 70%
- Control Rate ([4]; Cetuximab 100 mg/kg twice a week via tail vein, ointment 10.0 wt% once a day, 10 days): 85%
- Control Rate ([4]; Panitumumab 10 mg/kg twice a week via tail vein, ointment 1.0 wt% once a day, 14 days): 50%
- Control Rate ([4]; Panitumumab 10 mg/kg twice a week via tail vein, ointment 5.0 wt% once a day, 14 days): 60%
- Control Rate ([4]; Panitumumab 10 mg/kg twice a week via tail vein, ointment 10.0 wt% once a day, 14 days): 60%

SMILES: CCC(=O)OCCN(C)C(=O)n1ccc2c(N(C)[C@H]3CN(C(=O)CC#N)CC[C@H]3C)ncnc21 [Compound A20]
- solubility thermodynamic at 24 h [1, 5]: 2430 µg/mL (≈ 5180 µM)
- solubility thermodynamic at 24 h [1, 6]: 779 µg/mL (≈ 1660 µM)
- logD [2]: 0.97
